Reference: patent US11413278B2, “Compounds and methods for promoting stress resistance” (priority 2015, dated 2022)
Where two headings read alike, the source gives them in different places.

How the values were obtained:
LC3A/B puncta = assay: Autophagy induction analysis (LC3A/B puncta immuno-staining); format: cell-based, human; conditions: for Exp. 2, normalized change of nuclei numbers (Less cells): 20X objective, lysosomal LAMP co-staining
Method: Immuno-staining of LC3A/B was performed, following a standard protocol. Briefly, WI-38 cells were treated with small molecules for 24 hrs, and then processed and incubated with primary antibody (Cell Signaling, rabbit anti-LC3A/B, 1:100) overnight at 4° C. Next day, samples were processed and incubated with fluorophore-conjugated secondary antibody and further incubated with DAPI dye. Images were collected on the INCell Analyzer 2000 (Experiment 1: 10× objective; Experiment 2: 20× objective) and analyzed with the Developer Toolbox. For Experiment 2, lysosomal-associated membrane protein 2 (LAMP2) was also counter-stained to identify the LC3A/B puncta that colocalize with lysosome and the data were analyzed by the MetaXpress software (Molecular Devices, version 5.1). The intensity of total (Exp. 1) or LAMP2-colocalized LC3A/B puncta (Exp. 2) was normalized the total numbers nuclei in the fields.
These assays were performed, following the same procedures to analyze DNA-damage markers. WI-38 cells were incubated with small molecules for 24 hrs, and then processed and incubated with primary antibody (rabbit anti-LC3A/B, 1:100) overnight at 4 C. The next day, samples were processed and incubated with fluorophore-conjugated secondary antibody and further incubated with DAPI dye. Images were collected on an INCell Analyzer 2000 and analyzed with the Developer software. Total LC3A/B puncta intensity was normalized the total numbers of DAPI-positive nuclei.

WI-38 cells = assay: Long-term effects on cell viability (5 days, ATP; morphology, PI imaging); format: cell-based; conditions: 10 μM; for Luminescence signal for ATP measurement, day-1 Average / Luminescence signal for ATP measurement, day-2 Average / Luminescence signal for ATP measurement, day-3 Average / Luminescence signal for ATP measurement, day-4 Average / Luminescence signal for ATP measurement, day-5 Average / viability at 10 µM: Batch 1; for Luminescence signal for ATP measurement, day-1 Average / Luminescence signal for ATP measurement, day-2 Average / Luminescence signal for ATP measurement, day-3 Average / Luminescence signal for ATP measurement, day-4 Average / Luminescence signal for ATP measurement, day-5 Average: n = 6, day-0 luminescence = 320956 ± 24708; for viability at 10 µM: Homo sapiens, WI-38, 120 h, DMSO ctrl = 100.0%, read-out: ATP luminescence by day-5 normalized; for Luminescence signal for ATP measurement, day-5 Average / viability at 10 µM: day-5; for O = Potential toxicity / Q = Potential toxicity: human, 5 days;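 on Luminescence signal for ATP measurement, day-2 Average: compounds at 10 µM with ATP read daily over 5 days of treatment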;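 on Luminescence signal for ATP measurement, day-3 Average: compounds at 10 µM with ATP read daily over 5 days of treatment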;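 on Luminescence signal for ATP measurement, day-4 Average: compounds at 10 µM with ATP read daily over 5 days of treatment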;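 on Luminescence signal for ATP measurement, day-5 Average: compounds at 10 µM with ATP read daily over 5 days of treatment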
Method: In addition, cell death was scored by PI-imaging on day 2 and day 5 of treatment.
Applicants introduced molecules (at 10 uM final concentration) to WI-38 fibroblasts and then assayed cell viability (through ATP measurement) everyday, during a course of 5 days of continuous treatment. […] Applicants also examined the morphology and scored cell death (propidium iodide staining) for cells treated with the above molecules. Of these 14 molecules, some appeared to cause cell toxicity. […] Despite the observed long-term toxicity, these molecules are still interesting as they may act as anti-tumor agents in vivo, should they have more pronounced cytotoxicity on highly proliferative tumor cells. When cells were incubated with these molecules for ˜24 hrs and then subject to hydrogen peroxide for 3 hrs, these molecules are all protective. […] Some of these small molecules may be toxic by themselves under certain conditions, but by inducing protective mechanisms, they may trigger “hormesis” and therefore protect cells from oxidative stress.

NRF2 = assay: qPCR analysis of NRF2-regulated genes; format: cell-based, human; conditions: for fold induction at 10 µM: Homo sapiens; for Potential NRF2 Activation (>=2 target genes induced, by >=1.5-fold): Assay 13(p)
Summary of the method: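 WI-38 cells treated with compound at 10 μM for 24 hrs, then processed by Cells-to-Ct for RNA isolation, RT and qPCR of NRF2-regulated genes (HMOX1, NQO1, GCLC, GSTM1). Expression normalized to B2M, PPIA and GAPDH; siRNA knockdown of FOXO3 or NRF2 (10 nM) preceded treatment in some runs.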

[1] = 24 h, Assay 12(o), at 10 uM, qPCR, read-out: Induction of NRF2-regulated genes: GCLC normalized fold-change
[2] = 24 h, Assay 12(o), at 10 uM, qPCR, read-out: Induction of NRF2-regulated genes: HMOX1 normalized fold-change
[3] = 24 h, Assay 12(o), at 10 uM, qPCR, read-out: Induction of NRF2-regulated genes: NQO1 normalized fold-change
[4] = rounded fold change, WI-38 cells, 10 μM, 24 hrs (RP11 for Gr-1D, RP29 for Gr-4D), read-out: Summary of effects on NRF2-regulated genes: HMOX1
[5] = rounded fold change, WI-38 cells, 10 μM, 24 hrs (RP29 for Gr-4D), read-out: Summary of effects on NRF2-regulated genes: NQO1
[6] = rounded fold change, WI-38 cells, 10 μM, 24 hrs, read-out: Summary of effects on NRF2-regulated genes: GCLC
[7] = 10 μM, 24 hrs, WI-38 cells, qPCR, normalized to B2M, n = 4, read-out: GCLC expression, normalized fold change (NRF2-regulated gene)
[8] = 10 μM, 24 hrs, WI-38 cells, qPCR, normalized to B2M, n = 4, read-out: HMOX1 expression, normalized fold change (NRF2-regulated gene)
[9] = 10 μM, 24 hrs, WI-38 cells, qPCR, normalized to B2M, n = 4, read-out: NQO1 expression, normalized fold change (NRF2-regulated gene)
[10] = WI-38 cells, 10 μM, 24 hrs, n=4, qPCR normalized by B2M, read-out: GCLC Normalized fold change
[11] = WI-38 cells, 10 μM, 24 hrs, n=4, qPCR normalized by B2M, read-out: GSTM1 Normalized fold change
[12] = WI-38 cells, 10 μM, 24 hrs, n=4, qPCR normalized by B2M, read-out: HMOX1 Normalized fold change
[13] = WI-38 cells, 10 μM, 24 hrs, n=4, qPCR normalized by B2M, read-out: NQO1 Normalized fold change
[14] = 10 μM, 24 hrs, WI-38, read-out: Expression of at least two NRF2 target genes
[15] = Exp. 1, 10 μM, 10X objective, WI-38 cells

| SMILES | H = Potential Autophagy Induction (LC3A/B puncta; score) | H = Potential Autophagy Induction (LC3A/B puncta; summary score) | Luminescence signal for ATP measurement, day-1 Average (WI-38 cells) | Luminescence signal for ATP measurement, day-2 Average (WI-38 cells) | Luminescence signal for ATP measurement, day-3 Average (WI-38 cells) | Luminescence signal for ATP measurement, day-4 Average (WI-38 cells) | Luminescence signal for ATP measurement, day-5 Average (WI-38 cells) | viability at 10 µM (WI-38 cells) [%] | O = Potential toxicity (WI-38 cells) | Q = Potential toxicity (WI-38 cells) | F = Potential NRF2 Activation (NRF2; 2-point score) | fold induction at 10 µM (NRF2; [1]) | fold induction at 10 µM (NRF2; [3]) | fold induction at 10 µM (NRF2; [5]) | fold induction at 10 µM (NRF2; [9]) | fold induction at 10 µM (NRF2; [10]) | fold induction at 10 µM (NRF2; [11]) | fold induction at 10 µM (NRF2; [12]) | fold induction at 10 µM (NRF2; [13]) | F = Potential NRF2 Activation (NRF2; summary score) | further results |
| --- | --- | --- | --- | --- | --- | --- | --- | --- | --- | --- | --- | --- | --- | --- | --- | --- | --- | --- | --- | --- | --- |
| O=C(NCc1cccnc1)/C(=C\c1cccc(Oc2ccccc2)c1)S(=O)(=O)c1ccccc1 [Gr-7A] | 0 | 0 | 463265 | 192116 | 67526 | 48480 | 44670 | 4.4 | 0 | 1 | 0 | 0.6 | 0.78 | 0.78 | 0.78 | 0.602 | 1.09 | 15.2 | 0.779 | 0 | fold induction at 10 µM (NRF2; [2]): 15.2; fold induction at 10 µM (NRF2; [4]): 15.2; fold induction at 10 µM (NRF2; [6]): 0.6; fold induction at 10 µM (NRF2; [7]): 0.6; fold induction at 10 µM (NRF2; [8]): 15.2 |
| Cc1cc(C)c(C(=O)/C=C/c2ccccc2F)c(O)n1 [O18] | 0 | 0 | 453443 | 639628 | 693776 | 825623 | 760275 | 74 | 0 | 0 | 2 | 2.1 | 2.94 | 2.94 | 2.94 | 2.1 | 1.52 | 23.8 | 2.94 | 2 | Potential NRF2 Activation (>=2 target genes induced, by >=1.5-fold) (NRF2): YES; fold induction at 10 µM (NRF2; 24 h, Assay 12(o), at 10 uM, qPCR, read-out: Induction of NRF2-regulated genes: GSTM1 normalized fold-change): 1.52; fold induction at 10 µM (NRF2; [2]): 23.8; fold induction at 10 µM (NRF2; [4]): 23.8; fold induction at 10 µM (NRF2; rounded fold change, WI-38 cells, 10 μM, 24 hrs (RP29 for Gr-4D), read-out: Summary of effects on NRF2-regulated genes: GSTM1): 1.52; fold induction at 10 µM (NRF2; [6]): 2.1; fold induction at 10 µM (NRF2; [14]): > 1.5; fold induction at 10 µM (NRF2; [7]): 2.1; fold induction at 10 µM (NRF2; 10 μM, 24 hrs, WI-38 cells, qPCR, normalized to B2M, n = 4, read-out: GSTM1 expression, normalized fold change (NRF2-regulated gene)): 1.52; fold induction at 10 µM (NRF2; [8]): 23.8 |
| [O-][n+]1onc2c3nsnc3c(Br)cc21 [O17] | 0 | 0 | 507143 | 697351 | 849445 | 1073975 | 1070851 | 104 | 0 | 0 | 0 | 1.36 | 1.47 | 1.47 | 1.47 | 1.35 | 1.12 | 1.08 | 1.47 | 0 | Induction of at least two NRF2-regulated genes (HMOX1, NQO1, GCLC, GSTM1) (NRF2; 10 μM, 24 hrs, WI-38): could induce expression of at least two genes; fold induction at 10 µM (NRF2; [6]): 1.36; fold induction at 10 µM (NRF2; [7]): 1.36 |
| COc1ccc(C(=O)/C=C/c2ccccc2Br)c(OC)c1 [Gr-4B] | 0 | 0 | – | – | – | – | – | – | 0 | 0 | 2 | – | 2.36 | 2.36 | 2.36 | 1.15 | 1.15 | 4.51 | 2.36 | 2 | Potential NRF2 Activation (>=2 target genes induced, by >=1.5-fold) (NRF2): YES; fold induction at 10 µM (NRF2; [2]): 4.51; fold induction at 10 µM (NRF2; [4]): 4.51; fold induction at 10 µM (NRF2; [14]): > 1.5; fold induction at 10 µM (NRF2; [8]): 4.51 |
| CCc1ccccc1NC(=O)c1ccc([N+](=O)[O-])o1 [Gr-1C] | 1 | 1 | 421913 | 545683 | 662368 | 875881 | 819655 | 79.8 | 1 | 0 | 0 | 1.65 | 1.33 | 1.46 | 1.46 | 1.82 | 1.77 | 1.32 | 1.46 | 0 | Assay 15: Potential autophagy induction by LC3A/B puncta assays (LC3A/B puncta; 10 uM & 20 uM, YES/NO): YES; Exp. 1, induction of LC3A/B puncta (Up), total intensity normalized by total number of nuclei in the fields (LC3A/B puncta; [15]): p < 0.01; Up, 956%,; Exp. 1, normalized change of nuclei numbers (Less cells) (LC3A/B puncta; [15]): Less cells, 70%,; Exp. 2, normalized change of nuclei numbers (Less cells) (LC3A/B puncta; Exp. 2, 10 μM, WI-38 cells): Less cells, 58%,; Exp. 2, normalized change of nuclei numbers (Less cells) (LC3A/B puncta; Exp. 2, 20 μM, WI-38 cells): Less cells, 41%,; Induction of at least two NRF2-regulated genes (HMOX1, NQO1, GCLC, GSTM1) (NRF2; 10 μM, 24 hrs, WI-38): could induce expression of at least two genes; fold induction at 10 µM (NRF2; [6]): 1.82; fold induction at 10 µM (NRF2; [7]): 1.82 |
| Cc1cc(N)n(-c2ccccc2C(=O)O)n1 [Gr-6A] | 0 | 0 | 581273 | 717601 | 804970 | 1007061 | 986943 | 96.1 | 0 | 0 | 0 | – | – | – | – | 1.03 | 1.09 | 1.1 | 1.02 | 0 | – |
